# Legend:
# [1] = test system: PEO4 xenograft; test: In vivo [^18F]11 biodistribution and PET imaging, PEO4 xenograft; parameters: species or system mice; conditions: for 60 min biodistribution, Bone / 60 min biodistribution, Kidney / 60 min biodistribution, L. Intestine / 60 min biodistribution, Liver / 60 min biodistribution, Lung / 60 min biodistribution, Muscle / 60 min biodistribution, S. Intestine / 60 min biodistribution, Spleen / 60 min biodistribution, Tumour: PEO4
# Source text: In vivo tumour models were established by subcutaneous injection of PEO1/4 (10×10^6 cells, with v/v matrigel, BD Biosciences, Oxford, UK), RIF-1 (5×10^5 cells) and LNM35 (1×10^6 cells) on the back of 6-8 weeks old female nu/nu-BALB/c or male C3H/hej mice (Harlan, Bicester, Oxfordshire, UK). Tumour growth was monitored every two days using electronic callipers, and tumour volume estimated using (π/6)×L×W×D (L=length, W=width and D=depth). All animal work was done by licensed investigators in accordance with the United Kingdom's “Guidance on the Operation of Animals (Scientific Procedures) Act 1986” (HMSO, London, United Kingdom, 1990) and in full compliance with government regulations and guidelines on the welfare of animals in experimental neoplasia.
# For biodistribution studies, tumour-bearing mice were treated with 10 mg/kg cisplatin or vehicle for 24 h, anesthetized with isofluorane/O2/N2O and injected i.v. in the lateral tail vein with ˜100 μCi [^18F]11 for the indicated time. The different tissues were removed, weighted and placed in counting tubes for immediate Fluorine-18 radioactivity counting.
# Tumour-bearing mice treated with Cisplatin (10 mg/kg for 24 h) or vehicle were scanned on a dedicated small animal PET scanner (quad-HIDAC; Oxford Positron Systems, Weston-on-the-Green, United Kingdom). Anesthetized animals were placed within a thermostatically controlled bed and positioned prone within the scanner. The bed was calibrated to provide a mouse rectal temperature of ˜37° C. A bolus injection of [^18F]11 (˜100 μCi) was given intravenously (i.v.) via the tail vein cannula and scanning commenced. Dynamic emission scans were acquired in list-mode format over 60 minutes. The acquired data were then sorted into 0.5-mm sinogram bins and 19 time frames (0.5×0.5×0.5 mm voxels; 4×15, 4×60, and 11×300 seconds) for image reconstruction, which was done by filtered back projection using a two-dimensional Hamming filter (cutoff 0.6). The image data-sets obtained were transferred to a SUN workstation (Ultra 10; SUN Microsystems, Santa Clara, Calif.) and visualized using the Analyze software (version 6.0; Biomedical Imaging Resource, Mayo Clinic, Rochester, Minn.). Cumulative images of the dynamic data composed of 0 to 1 minute after injection and 30 to 60 minutes after injection were used for visualization of radiotracer uptake and to define the regions of interest (ROI). The count densities were averaged for each ROI at each of the 19 time points to obtain a time versus radioactivity curve (TAC) for the ROIs. Tumour TAC was normalized to that of heart at each of the time points to obtain the normalized uptake value (NUV). The [^18F]9 data from […] were used as internal input function for normalizing tumour data. […] FRT is a useful variable in that it indicates the proportion of radiotracer delivered to the tumour that is retained. It therefore normalizes tumor [^18F]9 uptake to delivery.
# [2] = test system: 38C13 murine lymphoma xenograft; test: Biodistribution of [^18F]11 in 38C13 xenograft-bearing mice after PET scan; assay type: in vivo, C3H/hej mice; parameters: Biodistribution, Lung: unit not given here
# Procedure: The in vivo experimental model of tumour apoptosis was established by subcutaneous injection of 38C13 murine lymphoma cells (5000 cells) on the back of 6-8 weeks old male C3H/hej mice (Harlan, Bicester, Oxfordshire, UK). When xenografts reached ˜100 mm3, the mice were treated with cyclophosphamide (CPA, 100 mg/kg) or vehicle for 24 h and then scanned on a dedicated small animal PET scanner (Siemens Inveon PET module). Anesthetized animals were placed within a thermostatically controlled bed and positioned prone within the scanner. A bolus injection of [^18F]11 (˜100 μCi) was given intravenously (i.v.) via the tail vein cannula and scanning commenced.
# Dynamic emission scans were acquired in list-mode format over 60 minutes. The acquired data were then sorted into 0.5-mm sinogram bins and 19 time frames for image reconstruction, which was done by filtered back projection. The image data-sets obtained were visualized using the Siemens Inveon Research Workplace software. Cumulative images of the dynamic data were used for visualization of radiotracer uptake and to define the regions of interest (ROI). The count densities were averaged for each ROI at each of the 19 time points to obtain a time versus radioactivity curve (TAC) for the ROIs (see FIG. 15).
# Tumour TAC was normalized to that of whole body at each of the time points to obtain the normalized uptake value (NUV).
# After the scan, the different tissues were removed, weighted and placed in tubes for immediate Fluorine-18 radioactivity counting to assess the [^18F]11 biodistribution (See Table 4, below).
smiles,measurement,setting,value
"O=C1C(=O)N(Cc2cn(CC[18F])nn2)c2ccc(S(=O)(=O)N3CCC[C@H]3COc3ccc(F)cc3F)cc21 [[^18F]11, (S)-1-((1-(2-Fluoroethyl)-1H-[1,2,3]-triazol-4-yl)methyl)-5-(2(2,4-difluorophenoxymethyl)-pyrrolidine-1-sulfonyl)isatin]","60 min biodistribution, Bone",[1]; CDDP treated,1.44 ± 0.66
same,"60 min biodistribution, Bone",[1]; Control,1.12 ± 0.47
same,uptake in the tumour of CDDP treated vs control mice,"[1]; CDDP-resistant PEO4 tumours, 60 min",not showing differences in uptake between control and treated
same,PET image: uptake in the tumour,"[1]; CDDP-treated mouse, PEO4 xenograft, 30-60 min",significant uptake
same,"60 min biodistribution, Kidney",[1]; CDDP treated,7.96 ± 3.34
same,"60 min biodistribution, Kidney",[1]; Control,8.04 ± 4.24
same,"60 min biodistribution, L. Intestine",[1]; CDDP treated,2.89 ± 0.93
same,"60 min biodistribution, L. Intestine",[1]; Control,2.40 ± 1.88
same,"60 min biodistribution, Liver",[1]; CDDP treated,8.22 ± 2.89
same,"60 min biodistribution, Liver",[1]; Control,6.71 ± 1.56
same,"60 min biodistribution, Lung",[1]; CDDP treated,4.73 ± 1.78
same,"60 min biodistribution, Lung",[1]; Control,3.31 ± 0.83
same,"60 min biodistribution, Muscle",[1]; CDDP treated,1.13 ± 0.22
same,"60 min biodistribution, Muscle",[1]; Control,0.88 ± 0.36
same,"60 min biodistribution, S. Intestine",[1]; CDDP treated,10.43 ± 14.36
same,"60 min biodistribution, S. Intestine",[1]; Control,10.37 ± 10.58
same,"60 min biodistribution, Spleen",[1]; CDDP treated,1.81 ± 0.80
same,"60 min biodistribution, Spleen",[1]; Control,1.26 ± 0.45
same,"60 min biodistribution, Tumour",[1]; CDDP treated,2.15 ± 0.79
same,"60 min biodistribution, Tumour",[1]; Control,1.66 ± 0.41
same,increase in uptake in tumours of CPA-treated mice compared to the vehicle,"[2]; 38C13 xenograft, CPA 100 mg/kg 24 h",2 fold
same,"Biodistribution, Blood",[2]; CPA,1.00 ± 0.00 % ID Tumour/blood ratio
same,"Biodistribution, Blood",[2]; Vehicle,1.00 ± 0.00 % ID Tumour/blood ratio
same,"Biodistribution, Bone",[2]; CPA,0.93 ± 0.07 % ID Tumour/blood ratio
same,"Biodistribution, Bone",[2]; Vehicle,0.87 ± 0.10 % ID Tumour/blood ratio
same,"Biodistribution, Brain",[2]; CPA,0.23 ± 0.03 % ID Tumour/blood ratio
same,"Biodistribution, Brain",[2]; Vehicle,0.24 ± 0.02 % ID Tumour/blood ratio
same,"Biodistribution, Feces",[2]; CPA,8.46 ± 0.91 % ID Tumour/blood ratio
same,"Biodistribution, Feces",[2]; Vehicle,13.28 ± 2.37 % ID Tumour/blood ratio
same,"Biodistribution, Heart",[2]; CPA,1.43 ± 0.16 % ID Tumour/blood ratio
same,"Biodistribution, Heart",[2]; Vehicle,1.31 ± 0.10 % ID Tumour/blood ratio
same,"Biodistribution, Kidney",[2]; CPA,7.23 ± 0.47 % ID Tumour/blood ratio
same,"Biodistribution, Kidney",[2]; Vehicle,7.21 ± 0.33 % ID Tumour/blood ratio
same,"Biodistribution, L. Intestine",[2]; CPA,2.78 ± 0.64 % ID Tumour/blood ratio
same,"Biodistribution, L. Intestine",[2]; Vehicle,6.07 ± 0.62 % ID Tumour/blood ratio
same,"Biodistribution, Liver",[2]; CPA,14.17 ± 1.55 % ID Tumour/blood ratio
same,"Biodistribution, Liver",[2]; Vehicle,10.60 ± 0.75 % ID Tumour/blood ratio
same,"Biodistribution, Lung",[2]; CPA,5.49 ± 0.66
same,"Biodistribution, Lung",[2]; Vehicle,4.27 ± 0.13
same,"Biodistribution, Muscle",[2]; CPA,1.20 ± 0.07 % ID Tumour/blood ratio
same,"Biodistribution, Muscle",[2]; Vehicle,1.22 ± 0.07 % ID Tumour/blood ratio
same,"Biodistribution, Plasma","[2]; CPA 100 mg/kg 24 h, 38C13 xenograft",1.90 ± 0.09 % ID Tumour/blood ratio
same,"Biodistribution, Plasma","[2]; Vehicle, 38C13 xenograft",1.98 ± 0.23 % ID Tumour/blood ratio
same,"Biodistribution, S. Intestine",[2]; CPA,83.12 ± 70.19 % ID Tumour/blood ratio
same,"Biodistribution, S. Intestine",[2]; Vehicle,291.61 ± 28.68 % ID Tumour/blood ratio
same,"Biodistribution, Spleen",[2]; CPA,1.81 ± 0.37 % ID Tumour/blood ratio
same,"Biodistribution, Spleen",[2]; Vehicle,2.30 ± 0.38 % ID Tumour/blood ratio
same,"Biodistribution, Stomach",[2]; CPA,1.62 ± 0.19 % ID Tumour/blood ratio
same,"Biodistribution, Stomach",[2]; Vehicle,1.95 ± 0.00 % ID Tumour/blood ratio
same,"Biodistribution, Tumour",[2]; CPA,1.24 ± 0.11 % ID Tumour/blood ratio
same,"Biodistribution, Tumour",[2]; Vehicle,0.83 ± 0.10 % ID Tumour/blood ratio
same,"Biodistribution, Urine",[2]; CPA,43.64 ± 12.24 % ID Tumour/blood ratio
same,"Biodistribution, Urine",[2]; Vehicle,116.71 ± 19.47 % ID Tumour/blood ratio

# — US8961930B2, “Isatin derivatives for use as in vivo imaging agents” (Imperial Innovations Limited, priority 2008, dated 2015)
